Assay in all cases: biochemical
One experiment deals with T1, MMP-2 (Homo sapiens, UniProt P08253).
T1 construct: made in house; provided by Dr. Gregory Goldberg, Washington University
T1 sequence (P08253 110-660): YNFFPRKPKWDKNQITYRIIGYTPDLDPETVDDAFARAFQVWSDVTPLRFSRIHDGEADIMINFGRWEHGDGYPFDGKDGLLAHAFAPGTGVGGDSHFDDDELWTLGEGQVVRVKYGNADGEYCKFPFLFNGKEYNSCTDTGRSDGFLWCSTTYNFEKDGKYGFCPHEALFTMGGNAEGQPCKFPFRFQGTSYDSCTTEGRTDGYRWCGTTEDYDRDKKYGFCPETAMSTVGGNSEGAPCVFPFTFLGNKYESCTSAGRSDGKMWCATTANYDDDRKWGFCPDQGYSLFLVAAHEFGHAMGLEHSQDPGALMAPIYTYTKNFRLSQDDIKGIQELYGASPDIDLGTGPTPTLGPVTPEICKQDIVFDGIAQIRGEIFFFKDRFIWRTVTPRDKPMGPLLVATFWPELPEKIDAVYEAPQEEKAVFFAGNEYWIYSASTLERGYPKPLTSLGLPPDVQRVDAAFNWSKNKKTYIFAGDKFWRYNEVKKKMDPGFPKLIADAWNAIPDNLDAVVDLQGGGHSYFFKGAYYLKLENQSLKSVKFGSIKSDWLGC
In outline: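 Assay buffer 100 mM Tris-HCl, 100 mM NaCl, 10 mM CaCl2, pH 7.5. Activated MMP + inhibitor, 5 min RT; then methoxycoumarin peptide substrate, 4 μM final. Readout fluorescence; IC50 calculated.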

The target in the next experiment is T2, MMP-13 (Homo sapiens, UniProt P45452).
T2 construct: made in house; host or cells: baculovirus / insect cells
In outline: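 APMA- or trypsin-activated enzymes were preincubated with inhibitor for 5 min at room temperature, then the fluorogenic substrate MCA-Pro-Leu-Gly-Leu-Dpa-Ala-Arg-NH2 was added to a final 4 μM.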

The target of the next experiment is T3, MMP-1 (Homo sapiens, UniProt P03956).
T3 construct: made in house; host or cells: transfected HT-1080 cells (provided by Dr. Harold Welgus, Washington University)
T3 sequence (P03956 100-469): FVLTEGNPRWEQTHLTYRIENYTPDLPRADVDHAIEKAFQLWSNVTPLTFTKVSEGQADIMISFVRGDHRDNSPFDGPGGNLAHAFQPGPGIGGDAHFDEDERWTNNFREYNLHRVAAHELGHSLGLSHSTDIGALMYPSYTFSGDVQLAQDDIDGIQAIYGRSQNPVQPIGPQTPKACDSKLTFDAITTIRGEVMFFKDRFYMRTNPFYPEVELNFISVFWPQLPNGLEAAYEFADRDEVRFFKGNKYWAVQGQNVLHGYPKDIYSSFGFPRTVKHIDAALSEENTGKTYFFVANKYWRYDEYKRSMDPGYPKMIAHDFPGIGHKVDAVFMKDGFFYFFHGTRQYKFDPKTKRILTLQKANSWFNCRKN
Conditions: read-out: MMP-1 IC50. In outline:
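APMA- or trypsin-activated human MMPs (MMP-1 from transfected HT-1080 cells, MMP-2 from transfected cells) preincubated with inhibitor in 1% DMSO at room temperature, then 4 μM MCA-Pro-Leu-Gly-Leu-Dpa-Ala-Arg-NH2 added in Tris/NaCl/CaCl2 buffer pH 7.5. IC50 from fluorescence reduction versus inhibitor concentration.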

The mark [1] stands for this setting: recombinant human MMP-2, MCA peptide substrate 4 μM, pH 7.5, room temperature, read-out: MMP-2 IC50.
Where [2] appears, read: recombinant human MMP-13, MCA peptide substrate 4 μM, pH 7.5, room temperature, read-out: MMP-13 IC50.
Where [3] appears, read: recombinant human MMP-1, MCA peptide substrate 4 μM, pH 7.5, room temperature.

Each structure is given as a SMILES string. Structures can show the parent of a compound that is named as a salt. Where two headings read alike, the source gives them in different places. Some results are limits rather than exact numbers.

`COCCN1CCC(C(=O)NO)(S(=O)(=O)c2ccc(N3CCC(C(=O)N(C)CCc4ccccn4)CC3)cc2)CC1` [Example 235, 1-[4-[[4[(Hydroxyamino)carbonyl]-1-(2-methoxyethyl)-4-piperidinyl]sulfonyl]phenyl]-N-methyl-N-[2-(2-pyridinyl)ethyl]-4-piperidinecarboxamide, Dihydrochloride]: the IC50 is 5300 nM at MMP-2 (setting [1]), 235 nM at MMP-13 (setting [2]) and over 10000 nM at MMP-1 (setting [3]).

For the molecule `COCCN1CCC(C(=O)NO)(S(=O)(=O)c2ccc(N3CCC(C(=O)Nc4ccccc4)CC3)cc2)CC1` [Example 236, N-Hydroxy-1-(2-methoxyethyl)-4-[[4-[4-[(phenylamino)carbonyl]-1-piperidinyl]phenyl]-sulfonyl]-4-piperidinecarboxamide Monohydrochloride)], the IC50 on MMP-2 (MMP-2 IC50 (nM)) is 400 nM; at MMP-13 (MMP-13 IC50 (nM), recombinant human MMP-13, MCA peptide substrate 4 μM, pH 7.5, room temperature) it was 9 nM; on MMP-1 (setting [3]), over 10000 nM.

Take `COCCN1CCC(C(=O)NO)(S(=O)(=O)c2ccc(N3CCC(C(=O)NCCCc4ccccc4)CC3)cc2)CC1` [Example 237, N-Hydroxy-1-(2-methoxyethyl)-4-[[4-[4-[[(3-phenylpropyl)amino]carbonyl]-1-piperidinyl]-phenyl]sulfonyl]-4-piperidinecarboxamide, Monohydrochloride]: the IC50 was 1900 nM on MMP-2 (setting [1]), 13 nM on MMP-13 (setting [2]) and over 10000 nM at MMP-1 (setting [3]).

Consider `C[C@@H]1C[C@H](C)CN(C(=O)C2CCN(c3ccc(S(=O)(=O)C4(C(=O)NO)CCN(C(=O)OC(C)(C)C)CC4)cc3)CC2)C1` [Example 241, rel-1,1-Dimethylethyl 4-[[4-[4-[[(3R,5S)-3,5-Dimethyl-1-piperidinyl]carbonyl]-1-piperidinyl]-phenyl]sulfonyl]-4-[(hydroxyamino)carbonyl]-1-piperidinecarboxylate], for which the IC50 was over 10000 nM at MMP-2 (setting [1]), 4.8 nM on MMP-13 (setting [2]) and over 10000 nM at MMP-1 (setting [3]).

With `COCCN1CCC(C(=O)NO)(S(=O)(=O)c2ccc(N3CCC(C(=O)NC4Cc5ccccc5C4)CC3)cc2)CC1` [Example 242, 4-[[4-[4-[[(2,3-Dihydro-1H-inden-2-yl)amino]carbonyl]-1-piperidinyl]phenyl]sulfonyl]-N-hydroxy-1-(2-methoxyethyl)-4-piperidinecarboxamide, Monohydrochloride], the figures for the IC50 on MMP-2 (setting [1]), on MMP-13 (setting [2]) and at MMP-1 (setting [3]) were 1500 nM, 42.5 nM and over 10000 nM, respectively.

For `O=C(Nc1ccccc1)C1CCN(c2ccc(S(=O)(=O)C3(C(=O)NO)CCN(C4CC4)CC3)cc2)CC1` [Example 243, 1-Cyclopropyl-N-hydroxy-4-[[4-[4-[(phenylamino)carbonyl]-1-piperidinyl]phenyl]sulfonyl]-4-piperidinecarboxamide, Monohydrochloride], the IC50 at MMP-2 (setting [1]) is 420 nM; on MMP-13 (setting [2]), 11.3 nM; on MMP-1 (setting [3]), over 10000 nM.

For the molecule `COCCN1CCC(C(=O)NO)(S(=O)(=O)c2ccc(N3CCC(C(=O)N(C)c4ccccc4)CC3)cc2)CC1` [Example 244, 1-[4-[[4-[(Hydroxyamino)carbonyl]-1-(2-methoxyethyl)-4-piperidinyl]-sulfonyl]phenyl]-N-methyl-N-phenyl-4-piperidinecarboxamide, Monohydrate], the results for the IC50 on MMP-2 (setting [1]), on MMP-13 (setting [2]) and on MMP-1 (setting [3]) were 4400 nM, 67.4 nM and over 10000 nM, respectively.

For `CC(=O)N1CCC(C(=O)NO)(S(=O)(=O)c2ccc(N3CCC(C(=O)Nc4ccccc4)CC3)cc2)CC1` [Example 245, 1-Acetyl-N-hydroxy-4-[[4-[4-[(phenylamino)carbonyl]-1-piperidinyl]phenyl]sulfonyl]-4-piperidinecarboxamide], the results for the IC50 at MMP-2 (setting [1]), on MMP-13 (setting [2]) and on MMP-1 (setting [3]) were 800 nM, 20 nM and over 10000 nM, respectively.

Take `COCCN1CCC(C(=O)NO)(S(=O)(=O)c2ccc(N3CCC(C(=O)N4CCc5ccccc54)CC3)cc2)CC1` [Example 246, 4-[[4-[4-[(2,3-Dihydro-1H-indol-1-yl)carbonyl]-1-piperidinyl]-phenyl]sulfonyl]-N-hydroxy-1-(2-methoxyethyl)-4-piperidinecarboxamide, Monohydrate]: the IC50 at MMP-2 (setting [1]) was 2700 nM; on MMP-13 (setting [2]) it was 32.7 nM; on MMP-1 (setting [3]), over 10000 nM.

Turning to `COCCN1CCC(C(=O)NO)(S(=O)(=O)c2ccc(N3CCC(C(=O)NCc4ccccc4)CC3)cc2)CC1` [Example 247, N-Hydroxy-1-(2-methoxyethyl)-4-[[4-[4-[[(phenylmethyl)amino]carbonyl]-1-piperidinyl]phenyl]-sulfonyl]-4-piperidinecarboxamide, Monohydrochloride], the IC50 is 1600 nM at MMP-2 (setting [1]), 34.5 nM on MMP-13 (setting [2]) and over 10000 nM on MMP-1 (setting [3]).

On to `COCCN1CCC(C(=O)NO)(S(=O)(=O)c2ccc(N3CCC(C(=O)Nc4ccc(OC(F)(F)F)cc4)CC3)cc2)CC1` [Example 248, N-Hydroxy-1-(2-methoxyethyl)-4-[[4-[4-[[[4-(trifluoromethoxy)phenyl]amino]carbonyl]-1-piperidinyl]-phenyl]sulfonyl]-4-piperidinecarboxamide, Monohydrochloride], for which the IC50 on MMP-2 (setting [1]) is 270 nM; on MMP-13 (setting [2]), 2.29 nM; on MMP-1 (setting [3]), over 10000 nM.

As to `COCCN1CCC(C(=O)NO)(S(=O)(=O)c2ccc(N3CCC(C(=O)Nc4cccc(OC(F)(F)F)c4)CC3)cc2)CC1` [Example 249, N-Hydroxy-1-(2-methoxyethyl)-4-[[4-[4-[[[3-(trifluoromethoxy)phenyl]amino]carbonyl]-1-piperidinyl]phenyl]sulfonyl]-4-piperidinecarboxamide, Monohydrochloride], the concentration for half-maximal inhibition (IC50) at MMP-2 (setting [1]) was 235 nM; at MMP-13 (setting [2]) it was 13 nM; on MMP-1 (setting [3]) it was over 10000 nM.

On to `O=C(NO)C1(S(=O)(=O)c2ccc(Oc3ccc(OC(F)(F)F)cc3)cc2)CCN(CCn2ccnc2)CC1` [Example 261, N-Hydroxy-1-[2-(1H-imidazol-1-yl)ethyl]-4-[[4-[4-(trifluoromethoxy)phenoxy]phenyl]sulfonyl]-4-piperidinecarboxamide, Dihydrochloride], for which the values for the IC50 on MMP-2 (setting [1]), at MMP-13 (setting [2]) and on MMP-1 (setting [3]) were under 0.1 nM, under 0.1 nM and 3700 nM, respectively.

In the case of `COCCN1CCC(C(=O)NO)(S(=O)(=O)c2ccc(Oc3ccc(-n4cncn4)cc3)cc2)CC1` [Example 262, N-Hydroxy-1-(2-methoxyethyl)-4-[[4-[4-(1H-1,2,4-triazol-1-yl)phenoxy]phenyl]sulfonyl]-4-piperidinecarboxamide Trihydrochloride], the IC50 was 0.9 nM at MMP-2 (setting [1]), 1.5 nM at MMP-13 (setting [2]) and over 10000 nM at MMP-1 (setting [3]).

With `O=C(NO)C1(S(=O)(=O)c2ccc(Oc3ccc(OC(F)(F)F)cc3)cc2)CCN(CCCN2CCOCC2)CC1` [Example 264, N-Hydroxy-1-[3-(4-morpholinyl)propyl]-4-[[4-[4-(trifluoromethoxy)phenoxy]phenyl]sulfonyl]-4-piperidinecarboxamide Dihydrochloride], the figures for the IC50 at MMP-2 (setting [1]), on MMP-13 (setting [2]) and at MMP-1 (setting [3]) were under 0.1 nM, 0.2 nM and 4500 nM, respectively.

For `CS(=O)(=O)N1CCC(C(=O)NO)(S(=O)(=O)c2ccc(Oc3ccc(OC(F)(F)F)cc3)cc2)CC1` [Example 273, N-Hydroxy-1-(methylsulfonyl)-4-[[4-[4-sulfonyl]-(trifluoromethoxy)phenoxy]phenyl]-4-piperidinecarboxamide], the IC50 at MMP-2 (setting [1]) is 0.1 nM; on MMP-13 (setting [2]), 0.3 nM; on MMP-1 (setting [3]), over 10000 nM.

In the case of `CC1CC(C)CN(C(=O)C2CCN(c3ccc(S(=O)(=O)C4(C(=O)NO)CCN(C(=O)OCC5c6ccccc6-c6ccccc65)CC4)cc3)CC2)C1` (stereo not drawn) [Example 274], the IC50 at MMP-2 (read-out: MMP-2 IC50) was over 10000 nM; at MMP-13 (read-out: MMP-13 IC50) it was 160 nM; at MMP-1, over 10000 nM.

Consider `C[C@H]1C[C@H](C)CN(C(=O)C2CCN(c3ccc(S(=O)(=O)C4(C(=O)NO)CCN(C(=O)CCl)CC4)cc3)CC2)C1` [Example 275], for which the IC50 on MMP-2 (read-out: MMP-2 IC50) is over 10000 nM; at MMP-13 (read-out: MMP-13 IC50) it was 70 nM; at MMP-1, over 10000 nM.

As a reminder, the IC50 is the point on the concentration scale where inhibition reaches its midpoint.
